One assay has as its system STHdh^Q7/Q7. As to the kind of experiment: Serum deprivation survival of STHdh Q7/Q7 striatal neuroblasts (MTT). Format: cell-based, mouse. To be noted: STHdh Q7/Q7, 72 h. The procedure:
Figure 4 In vitro neuroprotective action of VCE-003.2. (a) HiB5 cells were treated with quinolinic acid (QA; 2,5 mM) in the presence or the absence of VCE-003.2 (50 and 250 nM) and cell viability was determined after 24 h by the MTT assay. (b) QA-induced apoptosis measured by cleaved caspase 3 immunostaining (upper panel) of differentiating HiB5 cells was quantified in the presence or absence of VCE-003.2 (250 nM). Cell counts were referred to total cell nuclei counterstained with DAPI and c-caspase3^+ cell quantification is shown in the lower panel. […]. (d) Aggregation of mut-Htt was assessed by fluorescence microscopy in immortalized striatal STHdh transfected cells with a CFP-tagged expression vector of mutant huntingtin (mut-Htt) and counterstained with fluorescent phalloidin (upper panel). […]. Results are representative of three independent experiments. Values are expressed as means ± S. D. *p < 0.05 and ***p < 0.001 vs. Vehicle; ^#p < 0.05 ^##p < 0.01 vs. QA. […]
The HiB5 hippocampal progenitor cell line (kindly provided by Prof. Z. Kokaia, Lund Stem Cell Center, Sweden) was grown as described[46] in DMEM supplemented with 2 mM glutamine, 1% penicillin/streptomycin and 10% (v/v) fetal calf serum (FCS; Lonza, Switzerland). […] Cell viability was determined after 24 h using the 3-[4,5-dimethylthiazol-2-yl]-2,5-diphenyltetrazolium bromide (MTT) tesresults int. […]

Assay [1] deals with ERK, Akt and mTORC1 signaling pathways. As to the kind of experiment: ERK, Akt and mTORC1 signalling in HiB5 cells (western blot). It is filed as cell-based. The protocol: Figure 3 Prosurvival effect of VCE-003.2 in hippocampal neural progenitor HiB5 cells. (a,b) HiB5 cells in proliferative and differentiation conditions respectively were incubated with increasing concentrations of VCE-003.2 and cell viability was assessed using the MTT test after 48 h. (c) Cell viability and ERK1/2 phosphorylation status (activation) was determined in VCE-003.2-treated cells in the absence or presence of GW9662 (5 μM). (d) VCE-003.2 time-dependent regulation of the ERK, Akt and mTORC1 signaling pathways were determined by incubation with anti-phospho-ERK, phospho-Akt and phospho-S6 antibodies. Loading control was performed with α-tubulin antibody. Representative western blots and densitometry quantification of three independent experiments are shown. Values are expressed as means ± S.D. *p < 0.05; **p < 0.01 vs. Vehicle; ^#p < 0.05 vs. VCE-003.2.
Cleared cell extracts were subjected to SDS-PAGE, transferred to polyvinylidene difluoride membranes, and incubated with the correspondent primary antibodies against phospho-ERK1/2 (Thr202/Tyr204; Cell Signaling Technology, Danvers, MA, USA), phospho-S6 ribosomal protein (Ser235/236) (Cell Signaling Technology), phospho-Akt (Ser473) (Cell Signaling Technology) and α-tubulin (Sigma-Aldrich) overnight at 4 °C. After washing membranes, horseradish peroxidase-conjugated secondary antibody was added and detected by chemiluminescence system. Loading controls were performed with an anti-α-tubulin antibody. Densitometric quantification of the luminograms was performed using a GS-700 Imaging densitometer (Bio-Rad, Hercules, CA) and Image J software.

For `CCCCCC1=C(NCC)C(=O)C(C/C=C(\C)CCC=C(C)C)=C(O)C1=O` [VCE-003.2], the “neuronal viability after serum deprivation” value with STHdh^Q7/Q7 is reported as “improved”. Besides, in assay [1], the ERK phosphorylation entry is given as “induction of extracellular signal-regulated kinase (ERK) phosphorylation”. Further, the “ERK phosphorylation in presence of GW9662” value in assay [1] (+ GW9662 5 μM) was “abolished in the presence of GW9662”. In addition, the “activation of Akt, time course” value in assay [1] (phospho-Akt) was “activated at a higher extent and shortly after VCE-003.2 incubation and lasted until 60 min after incubation”. For the same molecule, in assay [1] (phospho-ERK and phospho-S6), the “activation of ERK and mTORC1 signaling, time course” value was “transient activation of ERK and mTORC1 signaling pathways between 15 and 30 min after stimulation”.

The values above are taken from PMC4949444 (Scientific Reports, 2016).
